1 compound from ChEMBL document CHEMBL1255318, “Effect of low-dose ritonavir on the pharmacokinetics of the CXCR4 antagonist AMD070 in healthy volunteers” (Antimicrob Agents Chemother, 2008) can be followed below.

As a reminder, the AUC(0-inf) is the area under the concentration-time curve extrapolated to infinity. A word on the Cmax: it is the maximum level reached in the sampled fluid or tissue. As a reminder, the Tmax is the time at which the peak concentration occurs. As a reminder, the bioavailability is dose-corrected exposure relative to a reference, in per cent. In general, AUC refers to the area under the concentration-time curve, a measure of exposure.

Holding throughout (format): ADME, organism-based
The nature of data set [1]: AUC (0 to infinity) in […] at […], po administered as single dose measured on day 3 by HPLC in presence of […]. More on the design: time infinity, route oral. The note with it: human, plasma.
Data set [2] is described as follows: Cmax in […] at […], po administered as single dose measured on day 1 by HPLC. The conditions noted are these: human, in vivo. More on the design: route oral.
The nature of data set [3]: Cmax in […] at […], po administered as single dose measured on day 17 by HPLC in presence of 29 doses of […]. Further details: route oral. The conditions noted are these: human, in vivo.
Data set [4] is described as follows: Tmax in […] at […], po administered as single dose measured on day 3 by HPLC in presence of […]. The conditions noted are these: human, in vivo.
Data set [5] can be described thus: AUC (0 to infinity) in […] at […], po administered as single dose measured on day 17 by HPLC in presence of 29 doses of […]. Further details: route oral, time infinity. The note with it: human, plasma.
Data set [6] can be described thus: Apparent volume of distribution during terminal phase in […] at […], po administered as single dose measured on day 1 by HPLC. Further details: route oral. The note with it: human, in vivo, read-out: Vz/F.
A short description of data set [7]: Cmax in […] at […], po administered as single dose measured on day 3 by HPLC in presence of […]. Further details: route oral. The conditions noted are these: human, in vivo.
A short description of data set [8]: Cmax in rat in presence of ritonavir. The note with it: in vivo.
Data set [9] can be described thus: Apparent volume of distribution during terminal phase in […] at […], po administered as single dose measured on day 3 by HPLC in presence of […]. The conditions noted are these: human, in vivo, read-out: Vz/F.
Data set [10] is described as follows: Tmax in […] at […], po administered as single dose measured on day 17 by HPLC in presence of 29 doses of […]. The note with it: human, in vivo.
Data set [11] is described as follows: Oral bio availability in rat in presence of ritonavir. The note with it: in vivo.
Data set [12] can be described thus: AUC (0 to infinity) in […] at […], po administered as single dose measured on day 1 by HPLC. Further details: route oral, time infinity. The conditions noted are these: human, plasma.
Data set [13] in a line: Apparent volume of distribution during terminal phase in […] at […], po administered as single dose measured on day 17 by HPLC in presence of 29 doses of […]. The note with it: human, in vivo, read-out: Vz/F.
A short description of data set [14]: Tmax in […] at […], po administered as single dose measured on day 1 by HPLC. More on the design: route oral. The conditions noted are these: human, in vivo.
Data set [15] can be described thus: AUC in rat in presence of ritonavir. The conditions noted are these: plasma.

In the case of `NCCCCN(Cc1nc2ccccc2[nH]1)[C@H]1CCCc2cccnc21` [MAVORIXAFOR], the total exposure AUC(0-inf) stood at 1640 ng·h/mL in data set [1], 1200 ng·h/mL in [5] and 934 ng·h/mL in data set [12]. Further, the Cmax in [2] was 256 ng/mL; in data set [3] it was 333 ng/mL; in data set [7] it was 362 ng/mL; in data set [8], 158 ng/mL. Besides, the time of peak concentration (Tmax) worked out at 2 h in data set [4], 1 h in data set [10] and 3 h in data set [14]. The Vd/F worked out at 4200 L in data set [6], 3450 L in [9] and 3930 L in data set [13]. Further, the bioavailability in data set [11] was 66%. The AUC in data set [15] was found to be 58 ng·h/mL.
